In patent US20250283017A1, “CLEANING COMPOSITIONS WITH ALKYLATED AMINO ACID SURFACTANTS HAVING ANTIMICROBIAL PROPERTIES” (THE CLOROX COMPANY, priority 2024, published 2025):

Columns and labels:
[1] = test system: Staphylococcus aureus; experiment: GST (germicidal spray test) AOAC 961.02 micro-efficacy of cleaning compositions; assay type: cell-based; details: 0.3 wt % alkylated amino acid, balance water, pH about 7, contact time 7 minutes; for GST efficacy in Cleaning Composition 1: 1 wt % lauryl amine oxide, 0.5 wt % butyl levulinate; for GST efficacy in Cleaning Composition 3: 1 wt % alkyl polyglucoside
Experimental: A number of tests were conducted for Cleaning Compositions 1-3 including different alkylated amino acids as set forth in Tables 1 and 2 as described herein. Tests were conducted using GST (germicidal spray test) testing method AOAC 961.02 for micro-efficacy (i.e., ability to kill bacteria) against Staphylococcus aureus. The contact time in the test method was 7 minutes, and the neutralizer utilized was Letheen Broth+0.07% Lecithin+0.5% Tween 80.

[2] = Stability of alkylated amino acid in cleaning composition 1 by HPLC-UV peak area vs t=0; assay type: physicochemical; details: HPLC-UV peak area relative to t=0; for % at t = 4 w (70° F.): 4 weeks; for % at t = 4 w (70° F.) / % at t = 8 w (70° F.): 70° F. (21° C.); for % at t = 8 w (70° F.) / % at t = 8 w (100° F.): 8 weeks; for % at t = 8 w (100° F.): 100° F. (38° C.)
Experimental: The cleaning compositions were prepared using the formulation previously described herein as cleaning composition 1, where each tested cleaning composition was comprised of the following: 0.3 wt % alkylated amino acid, 1 wt % surfactant (lauryl amine oxide), 0.5 wt % fragrance (butyl levulinate), and balance water (about 98.2 wt % water).
The stability tests were tested for amino acid stability at different temperatures, 70° F. (21° C.) and 100° F. (38° C.), over the following periods of time: 4 weeks (4w) and 8 weeks (8w). The samples tested were subjected to HPLC-UV analysis, and the peak areas of the plotted data corresponding to the alkylated amino acids in the samples at 4w and 8w were compared with the reference (sample at t=0) to obtain a percentage value (based upon measured area at different times divided by measured area of reference, t=0).
Percentage values of 70% or greater indicate adequate stability of the alkylated amino acids within the cleaning compositions over the 4 and 8 week time periods and at the given temperatures, where increasing percentage values (e.g., above 85%, 90% or even at or greater than 100%) indicate very stable cleaning compositions with little or no degradation of the alkylated amino acids within the compositions.

For `CCCCCCCCCCCCNCCCCC(N)C(=O)O` (stereo not shown) [Example 22], the “GST efficacy in Cleaning Composition 1” value [1] was greater than 99.999%, the “GST efficacy in Cleaning Composition 2” value [1] was greater than 99.999% and the “% at t = 4 w (70° F.)” value [2] was 100%. The “% at t = 8 w (70° F.)” value [2] was 150% and the “% at t = 8 w (100° F.)” value [2] was 146%.
With `CCCCCCCCCCCCNC(Cc1ccccc1)C(=O)OCC` (stereo not shown) [Example 88] the “GST efficacy in Cleaning Composition 1” value [1] was 99.999%, the “% at t = 4 w (70° F.)” value [2] was 93% and the “% at t = 8 w (70° F.)” value [2] was 91%. The “% at t = 8 w (100° F.)” value [2] was 74%.
For `CCCCCCCCCCCC(=O)NC(CCCCN)C(=O)OCC` (stereo not shown) [Example 16], the “GST efficacy in Cleaning Composition 1” value [1] was greater than 99.999%, the “GST efficacy in Cleaning Composition 2” value [1] was greater than 99.999% and the “% at t = 4 w (70° F.)” value [2] was 88%. For the same compound, the “% at t = 8 w (70° F.)” value [2] was 79% and the “% at t = 8 w (100° F.)” value [2] was 37%.
With `CCCCCCCCCCCCNC(=O)CN` [Example 62] the “GST efficacy in Cleaning Composition 3” value [1] was greater than 99.999%, the “GST efficacy in Cleaning Composition 1” value [1] was greater than 99.999% and the “% at t = 4 w (70° F.)” value [2] was 90%. For the same compound, the “% at t = 8 w (70° F.)” value [2] was 87% and the “% at t = 8 w (100° F.)” value [2] was 59%.
For `CCCCCCCCCCCCNC(=O)C(N)Cc1ccccc1` (stereo not shown) [Example 90], the “GST efficacy in Cleaning Composition 3” value [1] was greater than 99.999%, the “GST efficacy in Cleaning Composition 1” value [1] was greater than 99.999% and the “% at t = 4 w (70° F.)” value [2] was 104%. For the same compound, the “% at t = 8 w (70° F.)” value [2] was 101% and the “% at t = 8 w (100° F.)” value [2] was 96%.
In the case of `CCCCCCCCCCCCOC(=O)C(N)Cc1ccccc1` (stereo not shown) [Example 89], the “GST efficacy in Cleaning Composition 3” value [1] is reported as 99.6%, the “GST efficacy in Cleaning Composition 1” value [1] is reported as 99.999% and the “GST efficacy in Cleaning Composition 2” value [1] is reported as 99.5%. For the same compound, the “% at t = 4 w (70° F.)” value [2] was 82%, the “% at t = 8 w (70° F.)” value [2] was 63% and the “% at t = 8 w (100° F.)” value [2] was 12%.
In the case of `CCCCCCCCCCCC(=O)NCCCCC(N)C(=O)OCC` (stereo not shown) [Example 21], the “GST efficacy in Cleaning Composition 1” value [1] is reported as greater than 99.999%, the “GST efficacy in Cleaning Composition 2” value [1] is reported as greater than 99.999% and the “% at t = 4 w (70° F.)” value [2] is reported as 13%. For the same compound, the “% at t = 8 w (70° F.)” value [2] was 4% and the “% at t = 8 w (100° F.)” value [2] was 0%.
In the case of `CCCCCCCCCCCCNC(=O)C(C)CC(C)C` (stereo not shown) [Example 82], the “GST efficacy in Cleaning Composition 3” value [1] is reported as greater than 99.999%, the “GST efficacy in Cleaning Composition 1” value [1] is reported as greater than 99.999% and the “% at t = 4 w (70° F.)” value [2] is reported as 90%. The “% at t = 8 w (70° F.)” value [2] was 100% and the “% at t = 8 w (100° F.)” value [2] was 93%.
With `CCCCCCCCCCCCOC(=O)C(N)CC(C)C` (stereo not shown) [Example 81] the “GST efficacy in Cleaning Composition 3” value [1] was greater than 99.8%, the “GST efficacy in Cleaning Composition 1” value [1] was greater than 99.999% and the “GST efficacy in Cleaning Composition 2” value [1] was 95.3%. For the same compound, the “% at t = 4 w (70° F.)” value [2] was 64%, the “% at t = 8 w (70° F.)” value [2] was 36% and the “% at t = 8 w (100° F.)” value [2] was 5%.
In the case of `CCCCCCCCCCCCNC(CCCCN)C(=O)O` (stereo not shown) [Example 17], the “GST efficacy in Cleaning Composition 1” value [1] is reported as greater than 99.999%, the “GST efficacy in Cleaning Composition 2” value [1] is reported as greater than 99.999% and the “% at t = 4 w (70° F.)” value [2] is reported as 90%. The “% at t = 8 w (70° F.)” value [2] was 102% and the “% at t = 8 w (100° F.)” value [2] was 102%.
For `CCCCCCCCCCCCNC(CCCNC(=N)N)C(=O)O` (stereo not shown) [Example 2], the “GST efficacy in Cleaning Composition 1” value [1] was greater than 99.999%, the “GST efficacy in Cleaning Composition 2” value [1] was greater than 99.999% and the “% at t = 4 w (70° F.)” value [2] was 100%. For the same compound, the “% at t = 8 w (70° F.)” value [2] was 100% and the “% at t = 8 w (100° F.)” value [2] was 100%.
In the case of `CCCCCCCCCCCCNC(CCCNC(=N)N)C(=O)OCC` (stereo not shown) [Example 5], the “GST efficacy in Cleaning Composition 1” value [1] is reported as greater than 99.999% and the “GST efficacy in Cleaning Composition 2” value [1] is reported as greater than 99.999%.
With `CCCCCCCCCCCCNC(=O)C(N)CCCNC(=N)N` (stereo not shown) [Example 4] the “GST efficacy in Cleaning Composition 1” value [1] was greater than 99.999%, the “GST efficacy in Cleaning Composition 2” value [1] was greater than 99.999% and the “% at t = 4 w (70° F.)” value [2] was 106%. For the same compound, the “% at t = 8 w (70° F.)” value [2] was 112% and the “% at t = 8 w (100° F.)” value [2] was 81%.
With `CCCCCCCCCCCCNC(CC(C)C)C(=O)OCC` (stereo not shown) [Example 80] the “GST efficacy in Cleaning Composition 1” value [1] was 99.99%, the “GST efficacy in Cleaning Composition 2” value [1] was 99.4% and the “% at t = 4 w (70° F.)” value [2] was 93%. For the same compound, the “% at t = 8 w (70° F.)” value [2] was 85% and the “% at t = 8 w (100° F.)” value [2] was 89%.
For `CCCCCCCCCCCCNC(Cc1ccc(O)cc1)C(=O)OCC` (stereo not shown) [Example 92], the “GST efficacy in Cleaning Composition 1” value [1] was 99.99%, the “% at t = 4 w (70° F.)” value [2] was 99% and the “% at t = 8 w (70° F.)” value [2] was 59%. The “% at t = 8 w (100° F.)” value [2] was 57%.
With `CCCCCCCCCCCCNC(=O)C(N)Cc1ccc(O)cc1` (stereo not shown) [Example 94] the “GST efficacy in Cleaning Composition 3” value [1] was greater than 99.999%, the “GST efficacy in Cleaning Composition 1” value [1] was greater than 99.999% and the “% at t = 4 w (70° F.)” value [2] was 98%. For the same compound, the “% at t = 8 w (70° F.)” value [2] was 94% and the “% at t = 8 w (100° F.)” value [2] was 86%.
For `CCCCCCCCCCCCNC(Cc1c[nH]c2ccccc12)C(=O)OCC` (stereo not shown) [Example 96], the “GST efficacy in Cleaning Composition 1” value [1] was 99.999%, the “% at t = 4 w (70° F.)” value [2] was 94% and the “% at t = 8 w (70° F.)” value [2] was 87%. For the same compound, the “% at t = 8 w (100° F.)” value [2] was 35%.
With `CCCCCCCCCCCCNC(=O)C(N)CCCCN` (stereo not shown) [Example 20] the “GST efficacy in Cleaning Composition 1” value [1] was greater than 99.999%, the “GST efficacy in Cleaning Composition 2” value [1] was greater than 99.999% and the “% at t = 4 w (70° F.)” value [2] was 97%. The “% at t = 8 w (70° F.)” value [2] was 89% and the “% at t = 8 w (100° F.)” value [2] was 62%.
With `CCCCCCCCCCCCOC(=O)C(N)Cc1c[nH]c2ccccc12` (stereo not shown) [Example 97] the “GST efficacy in Cleaning Composition 1” value [1] was greater than 99.999%, the “% at t = 4 w (70° F.)” value [2] was 92% and the “% at t = 8 w (70° F.)” value [2] was 73%. The “% at t = 8 w (100° F.)” value [2] was 6%.
In the case of `CCCCCCCCCCCCOC(=O)C(N)Cc1ccc(O)cc1` (stereo not shown) [Example 93], the “GST efficacy in Cleaning Composition 3” value [1] is reported as 99.4%, the “GST efficacy in Cleaning Composition 1” value [1] is reported as greater than 99.999% and the “GST efficacy in Cleaning Composition 2” value [1] is reported as 99.9%. The “% at t = 4 w (70° F.)” value [2] was 75%, the “% at t = 8 w (70° F.)” value [2] was 56% and the “% at t = 8 w (100° F.)” value [2] was 8%.
With `CCCCCCCCCCCCNCC(=O)OCC` [Example 60] the “GST efficacy in Cleaning Composition 1” value [1] was greater than 99.999%, the “% at t = 4 w (70° F.)” value [2] was 8% and the “% at t = 8 w (70° F.)” value [2] was 0%. For the same compound, the “% at t = 8 w (100° F.)” value [2] was 0%.
With `CCCCCCCCCCCCNC(=O)C(N)Cc1c[nH]c2ccccc12` (stereo not shown) [Example 98] the “GST efficacy in Cleaning Composition 3” value [1] was 99.4%, the “GST efficacy in Cleaning Composition 1” value [1] was greater than 99.999% and the “% at t = 4 w (70° F.)” value [2] was 118%. The “% at t = 8 w (70° F.)” value [2] was 135% and the “% at t = 8 w (100° F.)” value [2] was 121%.
With `CCCCCCCCCCCC(=O)NC(CCCNC(=N)N)C(=O)OCC` (stereo not shown) [Example 1] the “GST efficacy in Cleaning Composition 1” value [1] was greater than 99.999%, the “GST efficacy in Cleaning Composition 2” value [1] was greater than 99.999% and the “% at t = 4 w (70° F.)” value [2] was 80%. The “% at t = 8 w (70° F.)” value [2] was 71% and the “% at t = 8 w (100° F.)” value [2] was 27%.
In the case of `CCCCCCCCCCCCOC(=O)CN` [Example 61], the “GST efficacy in Cleaning Composition 3” value [1] is reported as greater than 99.8%, the “GST efficacy in Cleaning Composition 1” value [1] is reported as greater than 99.999% and the “% at t = 4 w (70° F.)” value [2] is reported as 0%. For the same compound, the “% at t = 8 w (70° F.)” value [2] was 0% and the “% at t = 8 w (100° F.)” value [2] was 0%.
